Measurements taken from patent publication EP3095787A1, “[…] ACTIVE COMPOUNDS AS DAG-LIPASE INHIBITORS” (Universiteit Leiden, priority 2015, dated 2016).

What was measured:
[1] = biological target: T1, hDAGL-β (Homo sapiens, UniProt Q8NCG7); assay: Biochemical assay with para-nitrophenylbutyrate as surrogate substrate on human DAGL-β; conditions: n=4
T1 sequence (Q8NCG7 1-672): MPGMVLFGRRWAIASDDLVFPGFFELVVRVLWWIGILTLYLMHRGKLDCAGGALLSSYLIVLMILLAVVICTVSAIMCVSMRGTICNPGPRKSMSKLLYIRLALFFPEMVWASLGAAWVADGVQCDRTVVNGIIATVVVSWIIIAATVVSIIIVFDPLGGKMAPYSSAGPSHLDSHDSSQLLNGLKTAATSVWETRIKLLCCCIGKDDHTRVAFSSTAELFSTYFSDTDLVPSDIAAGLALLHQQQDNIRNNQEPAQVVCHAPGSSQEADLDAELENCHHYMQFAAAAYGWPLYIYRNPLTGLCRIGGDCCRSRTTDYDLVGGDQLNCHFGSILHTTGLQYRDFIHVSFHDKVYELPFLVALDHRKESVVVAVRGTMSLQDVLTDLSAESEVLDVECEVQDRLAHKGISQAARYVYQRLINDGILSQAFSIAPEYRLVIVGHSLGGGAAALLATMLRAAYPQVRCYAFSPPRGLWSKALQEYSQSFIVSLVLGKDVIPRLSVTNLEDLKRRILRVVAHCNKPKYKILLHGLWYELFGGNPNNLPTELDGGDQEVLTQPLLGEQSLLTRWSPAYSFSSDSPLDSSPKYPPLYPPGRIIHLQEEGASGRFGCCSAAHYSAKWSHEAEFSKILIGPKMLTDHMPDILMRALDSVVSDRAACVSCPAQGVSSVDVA

[2] = biological target: T2, cannabinoid CB1 receptor (Homo sapiens, UniProt P21554); assay: [3H]CP55940 displacement assay on CHOK1hCB1_bgal membranes; type: binding
T2 construct: expressed in transfected cells; host or cells: CHOK1hCB1_bgal (CHO-K1), membranes
Protocol: CHOK1hCB1_bgal cells (CHOK1 cell line expressing human cannabinoid receptor 1) were cultured in Ham's F12 Nutrient Mixture supplemented with 10% fetal calf serum, 1 mM glutamine, 50 U/mL penicillin, 50 µg/ml streptomycin, […] hygromycin and 800 µg/mL geneticin in a humidified atmosphere at 37°C and 5% CO2. Cells were subcultured twice a week at a ratio of 1:20 on 10-cm ø plates by trypsinization. For membrane preparation the cells were subcultured 1:10 and transferred to large 15-cm diameter plates.
The cells on thirty 15-cm ø plates were detached from the bottom by scraping them into 5 mL phosphate-buffered saline (PBS), collected in 12 mL Falcon tubes and centrifuged for 5 minutes at 200 x g (3,000 rpm). The pellets were resuspended in ice-cold 50 mM Tris-HCl buffer and 5 mM MgCl2 (pH 7.4). […] Membrane protein concentrations were measured using the BCA method.
[^3H]CP55940 displacement assays were used for high throughput screening of cold ligands and the determination of their affinity (Ki) and IC50 values. […] Nonspecific binding was determined in the presence of 10 µM AM630 (6-lodopravadoline; a selective inverse agonist for the cannabinoid receptor CB2). […] After 2 hours, the filter-bound radioactivity was determined by scintillation spectrometry using a Tri-Carb 2900 TR liquid scintillation counter (Perkin Elmer, Boston, MA).

T2 sequence (P21554 whole entry): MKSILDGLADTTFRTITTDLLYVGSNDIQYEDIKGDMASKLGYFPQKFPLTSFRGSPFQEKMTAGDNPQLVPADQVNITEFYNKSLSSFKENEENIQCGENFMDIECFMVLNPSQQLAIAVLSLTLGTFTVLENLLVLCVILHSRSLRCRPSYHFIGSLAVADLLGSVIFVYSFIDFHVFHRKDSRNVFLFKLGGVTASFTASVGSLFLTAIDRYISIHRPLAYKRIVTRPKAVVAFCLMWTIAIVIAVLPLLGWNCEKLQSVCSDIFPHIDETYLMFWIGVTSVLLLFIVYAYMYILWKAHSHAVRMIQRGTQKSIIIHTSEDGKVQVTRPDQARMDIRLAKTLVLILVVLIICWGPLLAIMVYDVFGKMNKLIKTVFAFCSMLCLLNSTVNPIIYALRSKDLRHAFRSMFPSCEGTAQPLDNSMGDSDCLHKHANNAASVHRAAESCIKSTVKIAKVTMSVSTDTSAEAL

IC50 [1]: 7.94 nM | displacement of 3H-CP55940 from the CB1 receptor ([2]; 10 µM): did not displace | Ki ([2]; CB1 receptor radioligand displacement): > 10 µM
Structure (SMILES): Cc1ccc(-c2cnc3nc(C(=O)CCCCCc4ccccc4)oc3c2)cc1 [Compound 25, 1-(6-(p-Tolyl)oxazolo[4,5-b]pyridin-2-yl)-6-phenylhexan-1-one]
